This passage reports IC50 results from patent US20240109917A1 (ACTELION PHARMACEUTICALS LTD, priority 2020, published 2024).

The target of assay [1] is Tb-labeled inactive PDGFRβ (Homo sapiens (Human), UniProt P09619). Description: PDGFRβ LanthaScreen Assay. Conditions: read-out: PDGFR Lantha IC50. The class given is binding.
The target in assay [2] is PDGFRβ (Rattus norvegicus (Rat), UniProt Q05030). The experiment in a line: PDGFRβ Cellular Assay (PDGFRb P-Y751 HTRF in A10 cells stimulated with PDGF-BB). The class given is cell-based. Conditions: read-out: PDGFR Cellular IC50. As to the method: II. Methods and Procedures
Cell Culture and Preparation: Cells are cultured according to ATCC procedure (5) with the addition of the antibiotic penicillin-streptomycin. If working from frozen, cells should be thawed according to ATCC procedure. Depending on the cell density of frozen vial, cells will need time to recover from thaw. An 80% confluent T75 flask should be enough for one 384 well plate.
Stock Solutions: Rat PDGFBB. A 100 ug/mL stock is prepared by reconstituting 50 ug in 500 uL of 4 mM HCl and 0.1% BSA. It can be stored for a month at 4° C., or aliquoted out and frozen in the −20/−80° C. to avoid multiple free-thaw cycles.
Freshly Prepared Solutions:
1× Cisbio cell lysis buffer. The cell lysis buffer is diluted 4-fold with molecular grade water. The blocking agent is then diluted 25-fold in the diluted lysis buffer.
Antibody solutions. Equal amounts d2 and cryptate antibody are diluted 20-fold in detection buffer.
Rat PDGFBB. A working stock of 100 ng/mL is created from the stock solution in 10% FBS culture media.
Step 1: Plating Cells: Media from the A10 cell flask is aspirated. The cells are rinsed with PBS and then trypsinized to disperse the cell layer. The cells are then pelleted are resuspended to 1.25e5 cells/mL. […] Plates are covered and placed in the incubator (37° C. 5% CO2) overnight to allow cells to adhere.
Step 2: Compound Dispense: Approximately 18 hours after plating, dispense 40 nL compound onto cells using Echo. Column 12 is the neutral control DMSO, column 24 is the inhibitor control 10 mM Imatinib (10 uM final assay concentration). The plate is returned to the incubator for 3 hours.
After 10 minutes the media is removed by flicking the plate.
Step 4: Cell lysis and antibody addition: 20 uL lysis buffer per well is added to the plate via Tempest. 5 uL antibody solution is added per well via the Tempest. The plate is placed on the shaker at 230 rpm for 1 hour at room temperature.
Step 5: Detection: The plate is read using the HTRF module on the BMG Pherastar. Data is analyzed using Genedata Screener.
III. Calculations and Formulas
% Inhibition: % Inhibition=(NC−sample)/(NC−PC)*100 where NC is the mean of negative control (reactions without inhibitor), and PC is the mean of positive control (10 μM imatinib).
IC50 values are determined from a 4-parameter fit, using the following equation: Y=Bottom+(Top−Bottom)/(1+10((Log IC50−X)*Hill slope)), where X=log10 of the compound concentration; top can be defined by PC; bottom defined by NC.

pIC50: −log10 of the molar value. Bounds are passed on as bounds.

Chain of Tb-labeled inactive PDGFRβ (P09619 33-1106): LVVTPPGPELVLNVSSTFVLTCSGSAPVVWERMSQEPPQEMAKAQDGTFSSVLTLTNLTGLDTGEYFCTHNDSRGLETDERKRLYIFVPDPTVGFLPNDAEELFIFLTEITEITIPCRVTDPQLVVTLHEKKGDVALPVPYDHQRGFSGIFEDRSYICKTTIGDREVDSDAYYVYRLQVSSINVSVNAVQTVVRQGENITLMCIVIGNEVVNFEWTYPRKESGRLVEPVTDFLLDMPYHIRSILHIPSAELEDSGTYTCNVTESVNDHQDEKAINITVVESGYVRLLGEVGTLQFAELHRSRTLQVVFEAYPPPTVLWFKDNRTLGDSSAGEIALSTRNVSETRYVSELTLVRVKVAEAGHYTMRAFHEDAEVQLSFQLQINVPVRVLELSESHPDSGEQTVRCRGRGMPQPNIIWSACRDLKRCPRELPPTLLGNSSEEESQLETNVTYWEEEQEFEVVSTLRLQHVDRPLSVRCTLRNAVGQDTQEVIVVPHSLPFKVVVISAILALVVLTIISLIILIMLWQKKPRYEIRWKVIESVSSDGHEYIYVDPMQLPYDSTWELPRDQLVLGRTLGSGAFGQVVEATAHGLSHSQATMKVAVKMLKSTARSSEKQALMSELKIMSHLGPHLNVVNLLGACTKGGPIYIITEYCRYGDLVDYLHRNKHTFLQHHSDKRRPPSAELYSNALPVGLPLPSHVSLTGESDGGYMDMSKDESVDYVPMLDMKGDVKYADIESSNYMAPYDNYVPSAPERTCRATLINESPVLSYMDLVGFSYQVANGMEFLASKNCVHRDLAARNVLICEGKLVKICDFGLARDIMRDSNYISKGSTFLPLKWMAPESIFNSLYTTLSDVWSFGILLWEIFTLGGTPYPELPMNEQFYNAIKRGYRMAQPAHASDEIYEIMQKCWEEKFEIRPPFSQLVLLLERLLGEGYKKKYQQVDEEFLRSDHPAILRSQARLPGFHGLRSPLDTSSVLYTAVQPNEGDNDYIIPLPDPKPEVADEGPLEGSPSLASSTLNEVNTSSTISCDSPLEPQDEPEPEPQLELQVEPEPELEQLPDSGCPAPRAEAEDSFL
Chain of PDGFRβ (Q05030 32-1097): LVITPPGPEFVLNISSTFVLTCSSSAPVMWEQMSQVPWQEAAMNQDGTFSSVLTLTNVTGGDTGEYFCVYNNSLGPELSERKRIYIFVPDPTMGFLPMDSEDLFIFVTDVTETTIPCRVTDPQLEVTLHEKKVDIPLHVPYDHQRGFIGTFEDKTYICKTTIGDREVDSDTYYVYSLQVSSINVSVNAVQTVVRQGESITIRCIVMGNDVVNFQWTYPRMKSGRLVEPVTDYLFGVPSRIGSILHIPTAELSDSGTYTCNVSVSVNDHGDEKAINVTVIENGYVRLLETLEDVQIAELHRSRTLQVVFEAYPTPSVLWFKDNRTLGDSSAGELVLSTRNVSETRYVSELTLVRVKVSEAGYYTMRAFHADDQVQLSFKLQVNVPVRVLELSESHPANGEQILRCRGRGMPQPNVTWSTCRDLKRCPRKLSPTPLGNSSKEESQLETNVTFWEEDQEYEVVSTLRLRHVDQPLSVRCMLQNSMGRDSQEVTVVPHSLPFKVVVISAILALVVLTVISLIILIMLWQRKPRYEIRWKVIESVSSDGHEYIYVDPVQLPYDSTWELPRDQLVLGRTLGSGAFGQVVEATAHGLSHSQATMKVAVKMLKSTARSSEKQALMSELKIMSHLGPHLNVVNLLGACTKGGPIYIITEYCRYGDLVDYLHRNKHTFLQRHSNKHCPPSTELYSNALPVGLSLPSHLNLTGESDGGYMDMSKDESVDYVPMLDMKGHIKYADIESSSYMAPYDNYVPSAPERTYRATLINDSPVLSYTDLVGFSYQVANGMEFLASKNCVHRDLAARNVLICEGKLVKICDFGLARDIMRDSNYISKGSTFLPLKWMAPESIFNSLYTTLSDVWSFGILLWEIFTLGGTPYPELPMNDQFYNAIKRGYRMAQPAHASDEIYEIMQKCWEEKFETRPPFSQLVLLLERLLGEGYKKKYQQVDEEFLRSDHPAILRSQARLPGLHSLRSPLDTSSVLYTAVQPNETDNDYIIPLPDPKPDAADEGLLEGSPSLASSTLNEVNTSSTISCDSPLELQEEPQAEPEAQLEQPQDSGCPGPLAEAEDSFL

Regarding `Cc1ncc(C(=O)NCCN2C3CCCC2CCC3)cc1NC(=O)c1cnn2cc(-c3cnn(C)c3)sc12` [Example 4, N-(5-((2-(9-azabicyclo[3.3.1]nonan-9-yl)ethyl)carbamoyl)-2-methylpyridin-3-yl)-2-(1-methyl-1H-pyrazol-4-yl)pyrazolo[5,1-b]thiazole-7-carboxamide], the negative-log IC50 (pIC50) in assay [1] is 8.64; in assay [2], 7.93.

Take `Cc1ncc(C(=O)NCCN2CC3CC(C3)C2)cc1NC(=O)c1cnn2cc(-c3cnn(C)c3)sc12` [Example 5, N-(5-((2-(3-azabicyclo[3.1.1]heptan-3-yl)ethyl)carbamoyl)-2-methylpyridin-3-yl)-2-(1-methyl-1H-pyrazol-4-yl)pyrazolo[5,1-b]thiazole-7-carboxamide]: the pIC50 is 8.24 in assay [1] and 7.58 in assay [2].

With `Cc1ncc(C(=O)NCCN2CCCC2(C)C)cc1NC(=O)c1cnn2cc(-c3cnn(C4CC4)c3)sc12` [Example 6, 2-(1-cyclopropyl-1H-pyrazol-4-yl)-N-(5-((2-(2,2-dimethylpyrrolidin-1-yl)ethyl)carbamoyl)-2-methylpyridin-3-yl)pyrazolo[5,1-b]thiazole-7-carboxamide], the pIC50 in assay [1] was 8.33; in assay [2], 8.11.

In the case of `Cc1ncc(C(=O)NCCN2CCCC2(C)C)cc1NC(=O)c1cnn2cc(-c3ccncc3)sc12` [Example 7, N-(5-((2-(2,2-dimethylpyrrolidin-1-yl)ethyl)carbamoyl)-2-methyl-pyridin-3-yl)-2-(pyridin-4-yl)pyrazolo[5,1-b]thiazole-7-carboxamide], the figures for the pIC50 in assay [1] and in assay [2] were 8.08 and 7.80, respectively.

Turning to `Cc1ncc(C(=O)NCCN2CCCC2(C)C)cc1NC(=O)c1cnn2cc(-c3cnn(C)c3)sc12` [Example 8, N-(5-((2-(2,2-dimethylpyrrolidin-1-yl)ethyl)carbamoyl)-2-methylpyridin-3-yl)-2-(1-methyl-1H-pyrazol-4-yl)pyrazolo[5,1-b]thiazole-7-carboxamide], the negative logarithm of the IC50 (pIC50) in assay [1] is 8.33; in assay [2] it was 7.36.

Consider `Cc1ncc(C(=O)NCCN2CCCC2(C)C)cc1NC(=O)c1cnn2cc(-c3ccn(C)n3)sc12` [Example 9, N-(5-((2-(2,2-dimethylpyrrolidin-1-yl)ethyl)carbamoyl)-2-methylpyridin-3-yl)-2-(1-methyl-1H-pyrazol-3-yl)pyrazolo[5,1-b]thiazole-7-carboxamide], for which the negative logarithm of the IC50 (pIC50) in assay [1] is 8.46; in assay [2] it was 7.77.

`Cc1ncc(NC(=O)CCN2CCCC2(C)C)cc1NC(=O)c1cnn2cc(-c3cnn(C)c3)sc12` [Example 10, N-(5-(3-(2,2-dimethylpyrrolidin-1-yl)propanamido)-2-methyl-pyridin-3-yl)-2-(1-methyl-1H-pyrazol-4-yl)pyrazolo[5,1-b]thiazole-7-carboxamide]: the negative logarithm of the IC50 (pIC50) in assay [1] is 8.55; in assay [2], 8.28.

On to `Cc1ncc(NC(=O)CCN2CCCC2(C)C)cc1NC(=O)c1cnn2cc(-c3ccnn3C)sc12` [Example 11, N-(5-(3-(2,2-dimethylpyrrolidin-1-yl)propanamido)-2-methyl-pyridin-3-yl)-2-(1-methyl-1H-pyrazol-5-yl)pyrazolo[5,1-b]thiazole-7-carboxamide], for which the results for the negative-log IC50 (pIC50) in assay [1] and in assay [2] were 8.30 and 7.97, respectively.

Consider `COCCn1cc(-c2cn3ncc(C(=O)Nc4cc(NC(=O)CCN5CCC56CCC6)cnc4C)c3s2)cn1` [Example 95, N-(5-(3-(1-azaspiro[3.3]heptan-1-yl)propanamido)-2-methylpyridin-3-yl)-2-(1-(2-methoxyethyl)-1H-pyrazol-4-yl)pyrazolo[5,1-b]thiazole-7-carboxamide], for which the negative logarithm of the IC50 (pIC50) in assay [1] is 8.29; in assay [2] it was 7.75.

With `Cc1ncc(NC(=O)CCN2CC(C)(C)C2)cc1NC(=O)c1cnn2cc(-c3cnn(C)c3)sc12` [Example 96, N-(5-(3-(3,3-dimethylazetidin-1-yl)propanamido)-2-methylpyridin-3-yl)-2-(1-methyl-1H-pyrazol-4-yl)pyrazolo[5,1-b]thiazole-7-carboxamide], the results for the negative-log IC50 (pIC50) in assay [1] and in assay [2] were 7.55 and 7.77, respectively.

On to `Cc1ncc(NC(=O)CCN2CCC3(CC2)CC3)cc1NC(=O)c1cnn2cc(-c3cnn(C)c3)sc12` [Example 97, N-(5-(3-(6-azaspiro[2.5]octan-6-yl)propanamido)-2-methylpyridin-3-yl)-2-(1-methyl-1H-pyrazol-4-yl)pyrazolo[5,1-b]thiazole-7-carboxamide], for which the pIC50 was 8.19 in assay [1] and 8.08 in assay [2].

Consider `Cc1ncc(NC(=O)CCN2CCCC23CC3)cc1NC(=O)c1cnn2cc(-c3cnn(C)c3)sc12` [Example 98], for which the pIC50 in assay [1] was 8.54; in assay [2] it was 8.33.

For `COCCn1cc(-c2cn3ncc(C(=O)Nc4cc(NC(=O)CCN5CC6CCC5CC6)cnc4C)c3s2)cn1` [Example 100, N-(5-(3-(2-azabicyclo[2.2.2]octan-2-yl)propanamido)-2-methylpyridin-3-yl)-2-(1-(2-methoxyethyl)-1H-pyrazol-4-yl)pyrazolo[5,1-b]thiazole-7-carboxamide], the pIC50 was 8.12 in assay [1] and 7.48 in assay [2].

As for `COCCn1nc(C)c(-c2cn3ncc(C(=O)Nc4cc(NC(=O)CCN5CC6CCC(C5)O6)cnc4C)c3s2)c1C` [Example 102, N-(5-(3-(8-oxa-3-azabicyclo[3.2.1]octan-3-yl)propanamido)-2-methylpyridin-3-yl)-2-(1-(2-methoxyethyl)-3,5-dimethyl-1H-pyrazol-4-yl)pyrazolo[5,1-b]thiazole-7-carboxamide], the values for the pIC50 in assay [1] and in assay [2] were 9.00 and 7.66, respectively.

Take `COCCn1nc(C)c(-c2cn3ncc(C(=O)Nc4cc(NC(=O)CCN5CCC6(CC6)C5)cnc4C)c3s2)c1C` [Example 103, N-(5-(3-(5-azaspiro[2.4]heptan-5-yl)propanamido)-2-methylpyridin-3-yl)-2-(1-(2-methoxyethyl)-3,5-dimethyl-1H-pyrazol-4-yl)pyrazolo[5,1-b]thiazole-7-carboxamide]: the results for the pIC50 in assay [1] and in assay [2] were 8.07 and 7.41, respectively.

In the case of `Cc1ncc(NC(=O)CCN2CCC3(CC3)C2)cc1NC(=O)c1cnn2cc(-c3cnn(C)c3)sc12` [Example 104, N-(5-(3-(5-azaspiro[2.4]heptan-5-yl)propanamido)-2-methylpyridin-3-yl)-2-(1-methyl-1H-pyrazol-4-yl)pyrazolo[5,1-b]thiazole-7-carboxamide], the pIC50 in assay [1] was 8.01; in assay [2], 8.04.

For `Cc1ncc(NC(=O)CCCN2CCC[C@@H]2C)cc1NC(=O)c1cnn2cc(-c3cnn(C)c3)sc12` [Example 106, (S)-2-(1-methyl-1H-pyrazol-4-yl)-N-(2-methyl-5-(4-(2-methylpyrrolidin-1-yl)butanamido)pyridin-3-yl)pyrazolo[5,1-b]thiazole-7-carboxamide], the figures for the pIC50 in assay [1] and in assay [2] were 7.17 and 6.34, respectively.

With `Cc1ncc(NC(=O)NCC2CCN(C)CC2)cc1NC(=O)c1cnn2cc(-c3cnn(C)c3)sc12` [Example 107, 2-(1-methyl-1H-pyrazol-4-yl)-N-(2-methyl-5-(3-((1-methylpiperidin-4-yl)methyl)ureido)pyridin-3-yl)pyrazolo[5,1-b]thiazole-7-carboxamide], the pIC50 in assay [1] was 6.24; in assay [2] it was less than 5.52.

As to `Cc1ncc(NC(=O)NCCC2CCN(C)CC2)cc1NC(=O)c1cnn2cc(-c3cnn(C)c3)sc12` [Example 108, 2-(1-methyl-1H-pyrazol-4-yl)-N-(2-methyl-5-(3-(2-(1-methylpiperidin-4-yl)ethyl)ureido)pyridin-3-yl)pyrazolo[5,1-b]thiazole-7-carboxamide], the figures for the pIC50 in assay [1] and in assay [2] were 6.31 and less than 5.52, respectively.

With `Cc1ncc(NC(=O)NCC2CCN(C(C)C)CC2)cc1NC(=O)c1cnn2cc(-c3cnn(C)c3)sc12` [Example 109, N-(5-(3-((1-isopropylpiperidin-4-yl)methyl)ureido)-2-methylpyridin-3-yl)-2-(1-methyl-1H-pyrazol-4-yl)pyrazolo[5,1-b]thiazole-7-carboxamide], the pIC50 in assay [1] is 5.72; in assay [2], less than 5.52.

As to `Cc1ncc(C(=O)NCCN2CCOCC23CC3)cc1NC(=O)c1cnn2cc(-c3cnn(C)c3)sc12` [Example 110, N-(5-((2-(7-oxa-4-azaspiro[2.5]octan-4-yl)ethyl)carbamoyl)-2-methylpyridin-3-yl)-2-(1-methyl-1H-pyrazol-4-yl)pyrazolo[5,1-b]thiazole-7-carboxamide], the negative-log IC50 (pIC50) is 8.24 in assay [1] and 7.45 in assay [2].
